# Active and inactive are the calls of the source. The calls are words filed in the database; no cut-off is given here. Where a SMILES comes first, the peptide text is derived from it. [ ]: non-standard residue; d: D form. Orn = NCCC[C@H](N)C(=O)O
# Tests used:
# Staphylococcus aureus [1] = test: Antibacterial activity against methicillin-resistant Staphylococcus aureus 2 assessed as blurred space in cytoplasm and cell wall at 5 x MIC incubated for 2 hrs by transmission electron microscopy analysis; format: functional, organism-based
# Staphylococcus aureus [2] = test: Antibacterial activity against methicillin-resistant Staphylococcus aureus 2 assessed as separation of plasma wall at 5 x MIC incubated for 2 hrs by transmission electron microscopy analysis; format: functional, organism-based
# Staphylococcus aureus [3] = test: Antibacterial activity against methicillin-resistant Staphylococcus aureus 2 assessed as cell wall loosening at 5 x MIC incubated for 2 hrs by transmission electron microscopy analysis; format: functional, organism-based
# Cell membrane [4] = test: Induction of cell membrane disruption in Staphylococcus aureus ATCC 29213 assessed as increase in protein leakage at 5 x MIC incubated for 2 hrs by coomassie brilliant blue dye assay; format: subcellular
# Staphylococcus aureus [5] = test: Antibacterial activity against Staphylococcus aureus ATCC 29213 assessed as separation of plasma wall at 5 x MIC incubated for 2 hrs by transmission electron microscopy analysis; format: functional, organism-based
# Staphylococcus aureus [6] = test: Antibacterial activity against Staphylococcus aureus ATCC 29213 assessed as cell wall loosening at 5 x MIC incubated for 2 hrs by transmission electron microscopy analysis; format: functional, organism-based
# Staphylococcus aureus [7] = test: Antibacterial activity against Staphylococcus aureus ATCC 29213 assessed as blurred space in cytoplasm and cell wall at 5 x MIC incubated for 2 hrs by transmission electron microscopy analysis; format: functional, organism-based
# Staphylococcus aureus [8] = test: Antibacterial activity against Staphylococcus aureus ATCC 29213 assessed as appearance of cell round pellet at 5 x MIC incubated for 2 hrs by transmission electron microscopy analysis; format: functional, organism-based
# Staphylococcus aureus [9] = test: Antibacterial activity against methicillin-resistant Staphylococcus aureus 2 assessed as appearance of cell round pellet at 5 x MIC incubated for 2 hrs by transmission electron microscopy analysis; format: functional, organism-based
# Cell membrane [10] = test: Induction of cell membrane disruption in methicillin-resistant Staphylococcus aureus 2 assessed as increase in protein leakage at 5 x MIC incubated for 2 hrs by coomassie brilliant blue dye assay; format: subcellular
# Staphylococcus aureus [11] = test: Antibacterial activity against Staphylococcus aureus SH-27 assessed as inhibition of bacterial growth incubated for 18 to 24 hrs by broth microdilution assay; format: functional; conditions: time 18-24 hrs
# [12] = Cytotoxicity against human A549 cells assessed as reduction in cell viability incubated for 72 hrs by CCK-8 assay; format: toxicity, cell-based
# Salmonella enteritidis = test: Antibacterial activity against Salmonella enteritidis SM012 assessed as inhibition of bacterial growth incubated for 18 to 24 hrs by broth microdilution assay; format: functional, Salmonella enterica subsp. enterica serovar Enteritidis; conditions: Salmonella enterica, time 18-24 hrs
# Staphylococcus aureus [13] = test: Antibacterial activity against Staphylococcus aureus ATCC 43300 assessed as inhibition of bacterial growth incubated for 18 to 24 hrs by broth microdilution assay; format: functional; conditions: time 18-24 hrs
# [14] = Cytotoxicity against human L02 cells assessed as reduction in cell viability incubated for 72 hrs by CCK-8 assay; format: toxicity, cell-based
# Escherichia coli = test: Antibacterial activity against Escherichia coli ATCC 25922 assessed as inhibition of bacterial growth incubated for 18 to 24 hrs by broth microdilution assay; format: functional; conditions: time 18-24 hrs
# [15] = Hemolytic activity in rabbit RBC assessed as hemolysis incubated for 1 hr by microtiter plate method; format: toxicity, cell-based, Oryctolagus cuniculus, Erythrocyte; conditions: red blood cells
# Staphylococcus aureus [16] = test: Antibacterial activity against Staphylococcus aureus ATCC 33591 assessed as inhibition of bacterial growth incubated for 18 to 24 hrs by broth microdilution assay; format: functional; conditions: time 18-24 hrs
# Staphylococcus aureus [17] = test: Antibacterial activity against Staphylococcus aureus ATCC 29213 assessed as inhibition of bacterial growth incubated for 18 to 24 hrs by broth microdilution assay; format: functional; conditions: time 18-24 hrs
# Staphylococcus aureus [18] = test: Antibacterial activity against methicillin-resistant Staphylococcus aureus 2 assessed as inhibition of bacterial growth incubated for 18 to 24 hrs by broth microdilution assay; format: functional; conditions: time 18-24 hrs
SMILES,Activity (Staphylococcus aureus [1]),Activity (Staphylococcus aureus [2]),Activity (Staphylococcus aureus [3]),Activity (Cell membrane [4]),Activity (Staphylococcus aureus [5]),Activity (Staphylococcus aureus [6]),Activity (Staphylococcus aureus [7]),Activity (Staphylococcus aureus [8]),Activity (Staphylococcus aureus [9]),Activity (Cell membrane [10]),MIC (Staphylococcus aureus [11]),IC50 at 72 h [12],MIC (Salmonella enteritidis),MIC (Staphylococcus aureus [13]),IC50 at 72 h [14],MIC (Escherichia coli),HC50 at 1 h [15],MIC (Staphylococcus aureus [16]),MIC (Staphylococcus aureus [17]),MIC (Staphylococcus aureus [18])
CC(C)C[C@@H]1NC(=O)[C@H](CCCN)NC(=O)[C@H](C(C)C)NC(=O)[C@@H]2CCCN2C(=O)[C@@H](Cc2ccccc2)NC(=O)[C@H](CC(C)C)NC(=O)[C@H](CCCN)NC(=O)[C@H](C(C)C)NC(=O)[C@@H]2CCCN2C(=O)[C@@H](Cc2ccccc2)NC1=O (cyclo(V[Orn]L[dF]PV[Orn]L[dF]P)),Active,Active,Active,Active,Active,Active,Active,Active,Active,Active,–,–,–,–,–,–,–,–,–,–
COc1c(OC(C)=O)cc2oc3cc(O)c(CC=C(C)C)c(O)c3c(=O)c2c1CC=C(C)C,–,–,–,–,–,–,–,–,–,–,2 µg/mL,17.5 µg/mL,> 256 µg/mL,2 µg/mL,13.2 µg/mL,> 256 µg/mL,> 500 µg/mL,2 µg/mL,4 µg/mL,2 µg/mL
